Source: US8455450B2, “Methods for obtaining a therapeutically effective amount of hematopoietic precursor cells and long term engraftment thereof” (Biokine Therapeutics Ltd., priority 2006, dated 2013)
Read-outs that look alike come from different tables or passages of the source.

B1: G-CSF: Granulocyte colony-stimulating factor (G-CSF) (Filgrastim Neupogen) (protein, UniProt P09919 31-207, looked up)
Granulocyte …: TPLGPASSLPQSFLLKCLEQVRKIQGDGAALQEKLVSECATYKLCHPEELVLLGHSLGIPWAPLSSCPSQALQLAGCLSQLHSGLFLYQGLLQALEGISPELGPTLDTLQLDVADFATTIWQQMEELGMAPALQPTQGAMPAFASAFQRRAGGVLVASHLQSFLEVSYRVLRHLAQP
modifications: N-terminal methionine

Columns and labels:
[1] = test system: hematopoietic progenitor cells (HPCs); experiment: Mobilization of hematopoietic progenitor cells to the blood, colony-forming cell assay; assay type: in vivo, C57BL/6 mice; conditions: 5 mg/kg s.c. 4F-benzoyl-TN14003 or AMD3100, 2 h, G-CSF 2.5 μg s.c. twice a day for 4 days, combination 18 h after last G-CSF
[2] = test system: BM cells on stromal cells (14F1.1); experiment: In vitro production of progenitors and mature cells from BM cells seeded on stromal cells (14F1.1); assay type: cell-based
Description: More specifically, the number of colonies was assayed by collecting the cells (10^5/plate) 4 days after treatment form the treated and control (untreated) plates, and evaluating the number of progenitor cells using a colony-forming cell assay. Burst forming units erythrocyte (BFU-E), colony forming units granulocyte-macrophage (CFU-GM), colony forming units megakaryocytes (CFU-M), and colony forming units granulocyte-erythrocyte-monocyte-macrophage (CFU-GEMM) were assayed by plating the cells in Iscove's-modified Dulbecco's Medium (IMDM) containing 1% methylcellulose, 15% FBS, 1% bovine serum albumin (BSA), 3 U/mL rh EPO, […] 2-mercaptoethanol, 2 mM L-glutamine, 50 ng/mL rmSCF, 10 ng/mL rmIL-3, […] rh Insulin, 10 ng/mL rh IL-6, and […] Human Transferrin (Methocult GF M3434; StemCell Technologies Inc.). The cultures were incubated at 37° C. in a humidified atmosphere containing 5% CO2. Seven days later, typical colonies were visually scored by morphologic criteria using a light microscope and the frequency of CFU was calculated. Staining colonies with benzidine dihydrochloride (Sigma, Israel) was used to localize hemoglobin-containing cells.

white-blood-cells (WBC) = assay type: in vivo; conditions: 5 mg/kg s.c. 4F-benzoyl-TN14003 or AMD3100, 2 h, G-CSF 2.5 μg s.c. twice a day for 4 days, combination 18 h after last G-CSF
[3] = test system: hematopoietic stem cells (HSCs); experiment: Hematopoietic stem cell assay: transplantation of mobilized blood cells into lethally irradiated mice, survival; assay type: in vivo, C57BL/6 mice; conditions: 2 h
Description: C57BL/6 mice, served as donors, were injected with 5 mg/kg of either 4F-benzoyl-TN14003 or AMD3100. 2 h later peripheral blood cells were collected following by ACK lysis and transferred into C57BL/6 recipient mice that were given a lethal dosing of irradiation (900 cGy) 24 h before i.v. injection of cells. A total cell obtained from 900 or 225 microliter of blood was transferred into single recipient mouse in a total volume of 200 μl PBS. Recipient mice transferred with cells obtained from blood of untreated mice or with normal BM cells were served as controls. Survival of mice was monitored for 4 months.
Although mobilization of HPCs may be of use for short-term repopulation in a transplantation setting, HSCs are required for long-term repopulation. To assess the effect of 4F-benzoyl-TN14003 on mobilization of murine HSCs, a transplantation model was used, in which donor C57Bl/6 mice were treated with 4F-benzoyl-TN14003 or AMD3100. After 2 h, blood was collected and cells isolated from an equal volume of blood obtained from each treated group (900 or 225 microliter in different experiments) were transferred for engraftment in lethally irradiated recipient C57Bl/6 mice. Survival of the recipient mice, indicative for long-term repopulating (LTR) activity and presence of HSCs, was monitored.

PC3-CXCR4.5 cells = experiment: MIP3α secretion by CXCR4-overexpressing PC3-CXCR4.5 cells (ELISA); assay type: cell-based
Source text: (§1) A PC3 prostate cell line that overexpresses high levels of CXCR4 was generated. […] FIG. 1A presents FACS histograms of PC3 cells (left panel) and a single cell clone with stable overexpression of CXCR4, GFP and luc genes (PC3-CXCR4.5, right panel) that were stained for the control (IgG2a-PE, full histograms) and CXCR4 (IgG2a-12G5, empty histograms) antibodies.
(§2) In this example, regulation of the chemokine MIP3α (macrophage inflammatory protein 3α) was examined. […] In FIG. 1B, PC3 (left panel) and PC3-CXCR4.5 (right panel) cells were stimulated with the indicated concentrations of CXCL12 for 48 hours and MIP3α secretion was assessed by ELISA. The results represent the average of triplicates±STDEV.
(§3) The effects of the CXCR4 antagonist AMD3100 and of 4F-benzoyl-TN14003 (4FB-TN14003), hitherto known as a CXCR4 antagonist, on MIP3α secretion were further tested. […] In FIG. 10, CXCR4 signaling in PC3 (left panel) and PC3-CXCR4.5 (right panel) cells was inhibited with anti-CXCL12 antibodies (αCXCL12) and Pertussis toxin (PTX) treatments alone or in combination with CXCL12, as indicated. Secretion of MIP3α was assessed by ELISA. The results represent the average of triplicates±STDEV.
Spontaneous secretion of MIP3α is CXCL12 and PTX independent in these cells.

PC3 cells = experiment: MIP3α secretion by PC3 prostate cells (ELISA); assay type: cell-based
Source text: as §1, §2, §3

[4] = test system: granulocytes (GR-1 positive cells); experiment: Granulocyte (GR-1 positive) counts in blood and bone marrow in a chemotherapy model; assay type: in vivo, mice; conditions: CPM 250 mg/kg total i.p.; 4F-benzoyl-TN14003 5 mg/kg s.c., G-CSF 5 μg/mouse
Description: Mice received a total dose of 250 mg/kg cyclophosphamide (CPM) by two 0.25 ml intra-peritoneal injections scheduled at day 0 (150 mg/kg) and day 3 (100 mg/kg). Mice were subcutaneously treated with 0.2 ml of 4F-benzoyl-TN14003 (5 mg/kg) at the indicated time points, as detailed in FIG. 13A. Flow cytometery was used to assess the number of cells in the blood and bone marrow (BM), and distinguish between the different populations. Cells were gated according to forward scatter and side scatter to exclude dead cells and to identify granulocytes (GR-1 positive cells).
Mice received a total dose of 250 mg/kg CPM by two 0.25 ml intra-peritoneal injections scheduled at day 0 (150 mg/kg) and day 3 (100 mg/kg). Mice were subcutaneously treated with 0.2 ml of 4F-benzoyl-TN14003 (5 mg/kg) or G-CSF 5 μg/mouse or the combination of both at the indicated time points as detailed in FIG. 14A. Flow cytometery was used to assess the number of cells in the blood and bone marrow (BM) and distinguish between the different populations. Cells were gated according to forward scatter and side scatter to exclude dead cells and to determine granulocytes (GR-1 positive cells).

neutrophils = experiment: Chemotherapy (cyclophosphamide)-induced neutropenia model, neutrophil counts; assay type: in vivo, C57BL/6 mice; conditions: cyclophosphamide 150 + 100 mg/kg i.p. days 1 and 4, treatment s.c. days 4-7 (4F-benzoyl-TN14003 5 mg/kg)
Description: In the chemotherapy-induced neutropenia model, a protocol as previously described was followed (Zuluaga et al., 2006). Briefly, Female C57BL/6 mice were injected intraperitoneally with 150 and 100 mg/kg of Cyclophosphamide (CPM) on days 1 and 4, respectively. Following the treatment with CPM, mice were injected s.c. with either G-CSF […], 4F-benzoyl-TN14003 (5 mg/kg) or their combination on day 4, 5, 6 and 7. Blood samples were drawn from each mouse on day 0 and two hours after G-CSF/4F-benzoyl-TN14003 injections on days 4, 5, 6 and 7. Lysis of the erythrocyte population in the blood samples was done using ACK lysis buffer. The number of neutrophils was determined by FACS after staining the cells with anti-PE-Gr-1 antibody.
Neutropenia was induced in female C57BL/6 mice by administration of a total dose of 250 mg/kg cyclophosphamide (CPM) in two 0.5 mL intraperitoneal injections scheduled at day 1 (150 mg/kg) and day 4 (100 mg/kg). The CPM protocol caused 4 days of neutropenia (from day 4 to day 8). When mice were treated with the combination of G-CSF and 4F-benzoyl-TN14003, a significant number of neutrophils was detected in the blood on day 6, as compared to mice that were treated with CPM only or with G-CSF or 4F-benzoyl-TN14003 alone (FIG. 12).

Molecule | BFU-E in blood, fold elevation of cell counts from control [1] | CFU-GEMM in blood, fold elevation of cell counts from control [1] | Progenitors in blood, fold elevation of cell counts from control [1] | BFU-E in blood, fold elevation of cell counts from control ([1]; listed as AMD31000) | production of GR-1 and Ter119 positive cells and progenitors ([2]; stromal cells (14F1.1) seeded with BM cells, 4F-benzoyl-TN14003 10 microgram/ml, G-CSF 100 ng/ml, 4 days) | Activated macrophages, fold elevation of cell counts from control (white-blood-cells (WBC)) | MNC, fold elevation of cell counts from control (white-blood-cells (WBC)) | Neutrophils, fold elevation of cell counts from control (white-blood-cells (WBC)) | Neutrophils, fold elevation of cell counts from control (white-blood-cells (WBC); listed as AMD31000) | Total WBC, fold elevation of cell counts from control (white-blood-cells (WBC); listed as AMD31000) | survival of lethally irradiated recipient mice ([3]; cells from 225 microliter of blood of donors given 5 mg/kg, day 33 post transplantation) | survival of lethally irradiated recipient mice ([3]; cells from 900 microliter of blood of donors given 5 mg/kg, day 11 post transplantation) | MIP3α secretion (PC3-CXCR4.5 cells; PC3-CXCR4.5 cells, ELISA) | CXCR4 dependence of induced MIP3α secretion (PC3-CXCR4.5 cells; transfection with CXCR4-specific or control siRNA) | MIP3α secretion (PC3 cells) | GR-1 positive cells in the blood (flow cytometry) [4] | differentiation and proliferation of BM cells on stromal cells (micrographs) ([2]; representative experiment, FIG. 17E) | Total WBC, fold elevation of cell counts from control (white-blood-cells (WBC)) | number of neutrophils in blood as % of the initial number in normal (untreated) mice (neutrophils; day 6) | number of neutrophils in blood as % of the initial number (neutrophils; day 7)
c1cc(CN2CCCNCCNCCCNCC2)ccc1CN1CCCNCCNCCCNCC1 [AMD3100, reference compound] | ~30 fold | 15.5 fold | 4.2 fold | 35 fold | did not demonstrate this effect | 6.1 fold | 3.4 fold | 8 fold | 8.0 fold | 2.9 fold | 37.5% | 73% | – | – | – | – | – | – | – | –
CXCL12: chemokine, CXCR4's only natural ligand | – | – | – | – | – | – | – | – | – | – | – | – | increased the secretion of MIP3α | CXCR4 dependent | increased the secretion of MIP3α | – | – | – | – | –
B1 | 142 fold | 151 fold | 13.6 fold | – | – | 1.4 fold | 1.4 fold | – | – | – | – | – | – | – | – | mobilize GR-1 positive cells and reduce neutropenia | differentiating and proliferating | 1.9 fold | only a mild effect | not sufficient to elevate neutrophil counts to their normal level
